From US20060263427A1, “Quinine formulations” (priority 2005, published 2006)
Where a name gives a salt, the structure may show the parent alone. Read-outs that look alike come from different tables or passages of the source.

Columns and labels:
[1] = 324 mg, 1 capsule, fasted
[2] = clinical; conditions: human, plasma, oral
[3] = fasted, non-transformed data, least squares mean
[4] = QTc interval measurements (ECG) over 24 hours after single oral dose of Quinine Sulfate (Example 6, Studies 1 and 2); type: in vivo, human
[5] = in vivo
[6] = Mean plasma quinine concentration over 24 hours after single oral dose of Quinine Sulfate (Example 6, Studies 1 and 2); type: in vivo, human; conditions: for concentration at 0 h / concentration at 2 h / concentration at 4 h / concentration at 6 h / concentration at 12 h / concentration at 24 h: both sexes, human, plasma, oral
[7] = clinical; conditions: human, in vivo
[8] = non-transformed data, least squares mean
[9] = 324 mg, Study 1, B: 324 mg capsule, fed
[10] = 324 mg, Study 2, C: 324 mg capsule, fasting
[11] = 648 mg, Study 2, D: 648 mg (two capsules), fasting

Question: Which results are given for `C=C[C@H]1C[N@@]2CC[C@H]1C[C@H]2[C@H](O)c1ccnc2ccc(OC)cc12` [Quinine Sulfate, cinchonan-9-ol, 6′-methoxy-, (8α,9R)-, sulfate (2:1)]?
Answer: Cmax ([1]; Ln-transformed data, geometric mean): 2242.70 ng/mL; AUC0-INF [1, 8]: 33280.89 ng·h/mL; AUC0-t [1, 8]: 31298.12 ng·h/mL; Tmax ([2]; 260 mg): 2.61 h; AUC0-t ([2]; 324 mg): 30300 ng·h/mL; AUC(0-inf) ([2]; 324 mg): 32100 ng·h/mL; Cmax ([2]; 324 mg): 2280 ng/mL; Tmax ([2]; 324 mg): 2.75 h; kelim ([3]; 324 mg, 1 capsule): 0.0592; kelim ([3]; 648 mg, 2 capsules): 0.0572; subjects with significant prolongations in QTc interval (>450 msec) ([4]; 50 subjects, single oral doses 324 mg or 648 mg): seven; relation of mean QTc value to plasma concentration ([4]; single oral doses, Table 1): an increase in the mean QTc value was found to correspond with the peak quinine plasma concentration; AUC0-INF ([5]; human, 648 mg): 61817.27 ng·h/mL; AUC0-t ([5]; human, 648 mg): 56394.65 ng·h/mL; Cmax ([5]; human, 648 mg): 3174.89 ng/mL; dose proportionality of AUCT and AUCinf [5]: proportional increase; dose proportionality of Cmax [5]: nonlinear dose proportionality; Mean Plasma Concentration ([6]; Study 2, C: 324 mg capsule, fasting, 0 hours): 0; ng/ml; concentration at 0 h ([6]; 324 mg, Study 1, B: 324 mg capsule, fed, 0 hours): 0 ng/mL; concentration at 2 h [6, 9]: 835 ng/mL; concentration at 4 h [6, 9]: 2260 ng/mL; concentration at 6 h [6, 9]: 2010 ng/mL; concentration at 12 h [6, 9]: 1220 ng/mL; concentration at 24 h [6, 9]: 543 ng/mL; concentration at 2 h [6, 10]: 1860 ng/mL; concentration at 4 h [6, 10]: 1880 ng/mL; concentration at 6 h [6, 10]: 1710 ng/mL; concentration at 12 h [6, 10]: 994 ng/mL; concentration at 24 h [6, 10]: 475 ng/mL; concentration at 0 h ([6]; 648 mg, Study 2, D: 648 mg (two capsules), fasting, 0 hours): 0 ng/mL; concentration at 2 h [6, 11]: 2810 ng/mL; concentration at 4 h [6, 11]: 2950 ng/mL; concentration at 6 h [6, 11]: 2720 ng/mL; concentration at 12 h [6, 11]: 1700 ng/mL; concentration at 24 h [6, 11]: 912 ng/mL; Tmax ([7]; 324 mg): 2.78 h; Tmax ([7]; 648 mg): 2.8 h; AUC(0-inf) ([7]; 648 mg, AUC0-INF): 59200 ng·h/mL; AUC0-t ([7]; 648 mg, AUC0-t): 54400 ng·h/mL; Cmax ([7]; 648 mg, Cmax): 3240 ng/mL
